Patent US20230085307A1, “PYRIDAZINONE COMPOUND AND HERBICIDE” (NISSAN CHEMICAL CORPORATION, priority 2019, published 2023)

Legend:
Italian ryegrass = assay: Test Example 5: herbicidal effect by foliage application, plastic box (Table 20, symbol K); assay type: in vivo, Italian ryegrass (Lolium multiflorum); conditions: foliage application, three weeks after application
Description: (§1) [Test Example 5] Herbicidal Effect Test by Foliage Application
(§2) Sterilized diluvial soil was placed in a plastic box having a length of 21 cm, a width of 13 cm, and a depth of 7 cm. The seeds of each of southern crabgrass, green foxtail, barnyard grass, wild oat, blackgrass, Italian ryegrass, windgrass, velvetleaf, redroot pigweed, lambsquarters, chickweed, false cleavers, persian speedwell, corn, soybean, rice, wheat, beet, and rapeseed were sowed in a spot-like manner and covered with the soil having a thickness of about 1.5 cm. Thereafter, the plants were grown in a greenhouse at 25° C. to 30° C. After 14-day growth of the plants, the emulsion agent of the compound of the present invention prepared according to Formulation Example 2 was diluted with water so as to achieve a predetermined herbicide amount, and the diluted emulsion agent was uniformly applied to a foliage part with a small-sized spray. Three weeks after the herbicide application, the effect of the herbicide on each plant was evaluated according to the criteria of Test Example 1.

blackgrass = assay: Test Example 5: herbicidal effect by foliage application, plastic box (Table 20, symbol J); assay type: in vivo, blackgrass (Alopecurus myosuroides); conditions: foliage application, three weeks after application
Description: as §1, §2

velvetleaf = assay: Test Example 5: herbicidal effect by foliage application, plastic box (Table 20, symbol M); assay type: in vivo, velvetleaf (Abutilon theophrasti); conditions: foliage application, three weeks after application
Description: as §1, §2

lambsquarters = assay: Test Example 5: herbicidal effect by foliage application, plastic box (Table 20, symbol O); assay type: in vivo, lambsquarters (Chenopodium album); conditions: foliage application, three weeks after application
Description: as §1, §2

rice flat sedge = assay: Test Example 3: herbicidal effect by foliage application, Wagner pot (Table 18, symbol E); assay type: in vivo, rice flat sedge (Cyperus iria)
Summary of the method: (§3)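 Plants were sown in alluvial soil held under 0.1–0.5 cm standing water and grown 14 days in a greenhouse at 25–30 °C. An emulsifiable formulation, water-diluted to the set dose, was then sprayed onto the foliage, and effects were scored three weeks later using previously defined criteria.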

green foxtail = assay: Test Example 5: herbicidal effect by foliage application, plastic box (Table 20, symbol G); assay type: in vivo, green foxtail (Setaria viridis); conditions: foliage application, three weeks after application
Description: as §1, §2

Chinese sprangletop = assay: Test Example 3: herbicidal effect by foliage application, Wagner pot (Table 18, symbol D); assay type: in vivo, chinese sprangletop (Leptochloa chinensis)
Method: [Test Example 3] Herbicidal Effect Test by Foliage Application After alluvial soil was placed into 1/10000 are of Wagner pot, water was poured and mixed to form a submerged condition having a water depth of 0.1 cm to 0.5 cm. Seeds of barnyard grass, Chinese sprangletop, rice flat sedge, and rice were sowed and the pot was placed in a greenhouse at 25° C. to 30° C. for growth of the plants. After 14-day growth of the plants, the emulsion agent of the compound of the present invention prepared according to Formulation Example 2 was diluted with water so as to achieve a predetermined herbicide amount, and the diluted emulsion agent was uniformly applied to a foliage part with a small-sized spray. Three weeks after the herbicide application, the effect of the herbicide on each plant was evaluated according to the criteria of Test Example 1.

barnyard grass [1] = assay: Test Example 5: herbicidal effect by foliage application, plastic box (Table 20, symbol H); assay type: in vivo, barnyard grass (Echinochloa crus-galli); conditions: foliage application, three weeks after application
Description: as §1, §2

barnyard grass [2] = assay: Test Example 3: herbicidal effect by foliage application, Wagner pot (Table 18, symbol H); assay type: in vivo, barnyard grass (Echinochloa crus-galli)
Summary of the method: as §3

windgrass = assay: Test Example 5: herbicidal effect by foliage application, plastic box (Table 20, symbol L); assay type: in vivo, windgrass (Apera spica-venti); conditions: foliage application, three weeks after application
Description: as §1, §2

persian speedwell = assay: Test Example 5: herbicidal effect by foliage application, plastic box (Table 20, symbol R); assay type: in vivo, Persian speedwell (Veronica persica); conditions: foliage application, three weeks after application
Description: as §1, §2

wild oat = assay: Test Example 5: herbicidal effect by foliage application, plastic box (Table 20, symbol I); assay type: in vivo, wild oat (Avena fatua); conditions: foliage application, three weeks after application
Description: as §1, §2

southern crabgrass = assay: Test Example 5: herbicidal effect by foliage application, plastic box (Table 20, symbol F); assay type: in vivo, southern crabgrass (Digitaria ciliaris); conditions: foliage application, three weeks after application
Description: as §1, §2

SMILES | herbicidal effect on Italian ryegrass (K) (Italian ryegrass; 320 g/ha) | herbicidal effect on blackgrass (J) (blackgrass; 320 g/ha) | herbicidal effect on velvetleaf (M) (velvetleaf; 320 g/ha) | herbicidal effect on lambsquarters (O) (lambsquarters; 320 g/ha) | herbicidal effect on rice flat sedge (E) (rice flat sedge; 320 g/ha) | herbicidal effect on green foxtail (G) (green foxtail; 320 g/ha) | herbicidal effect on Chinese sprangletop (D) (Chinese sprangletop; 320 g/ha) | herbicidal effect on barnyard grass (H) (barnyard grass [1]; 320 g/ha) | herbicidal effect on barnyard grass (H) (barnyard grass [2]; 320 g/ha) | herbicidal effect on windgrass (L) (windgrass; 320 g/ha) | herbicidal effect on persian speedwell (R) (persian speedwell; 320 g/ha) | herbicidal effect on wild oat (I) (wild oat; 320 g/ha) | herbicidal effect on southern crabgrass (F) (southern crabgrass; 320 g/ha) | also measured
CCCC(=O)Oc1c(C)nn(C)c(=O)c1-c1c(-c2ccc(OC)c(OC)c2)sc2cc(OC)c(OC)cc12 [5-063] | 1 (Herbicidal rate of 5% or more and less than 20%) | 0 (Herbicidal rate of 5% or less (almost no effect)) | 0 (Herbicidal rate of 5% or less (almost no effect)) | 0 (Herbicidal rate of 5% or less (almost no effect)) | 2 (Herbicidal rate of 20% or more and less than 40%) | 0 (Herbicidal rate of 5% or less (almost no effect)) | 0 (Herbicidal rate of 5% or less (almost no effect)) | 0 (Herbicidal rate of 5% or less (almost no effect)) | 3 (Herbicidal rate of 40% or more and less than 70%) | 0 (Herbicidal rate of 5% or less (almost no effect)) | 0 (Herbicidal rate of 5% or less (almost no effect)) | 0 (Herbicidal rate of 5% or less (almost no effect)) | 0 (Herbicidal rate of 5% or less (almost no effect)) | 
COc1cc2sc(-c3ccc(F)cc3)c(-c3c(O)c(C)nn(C)c3=O)c2cc1-c1ccc(F)cc1 [5-078] |  |  |  |  |  |  |  |  |  |  |  |  |  | herbicidal effect on Italian ryegrass (K) (Italian ryegrass; 270 g/ha): 0 (Herbicidal rate of 5% or less (almost no effect)); herbicidal effect on blackgrass (J) (blackgrass; 270 g/ha): 0 (Herbicidal rate of 5% or less (almost no effect)); herbicidal effect on velvetleaf (M) (velvetleaf; 270 g/ha): 3 (Herbicidal rate of 40% or more and less than 70%); herbicidal effect on lambsquarters (O) (lambsquarters; 270 g/ha): 1 (Herbicidal rate of 5% or more and less than 20%); herbicidal effect on rice flat sedge (E) (rice flat sedge; 270 g/ha): 3 (Herbicidal rate of 40% or more and less than 70%); herbicidal effect on green foxtail (G) (green foxtail; 270 g/ha): 5 (Herbicidal rate of 90% or more (almost completely withered)); herbicidal effect on Chinese sprangletop (D) (Chinese sprangletop; 270 g/ha): 4 (Herbicidal rate of 70% or more and less than 90%); herbicidal effect on barnyard grass (H) (barnyard grass [1]; 270 g/ha): 4 (Herbicidal rate of 70% or more and less than 90%); herbicidal effect on barnyard grass (H) (barnyard grass [2]; 270 g/ha): 4 (Herbicidal rate of 70% or more and less than 90%); herbicidal effect on windgrass (L) (windgrass; 270 g/ha): 0 (Herbicidal rate of 5% or less (almost no effect)); herbicidal effect on persian speedwell (R) (persian speedwell; 270 g/ha): 0 (Herbicidal rate of 5% or less (almost no effect)); herbicidal effect on wild oat (I) (wild oat; 270 g/ha): 0 (Herbicidal rate of 5% or less (almost no effect)); herbicidal effect on southern crabgrass (F) (southern crabgrass; 270 g/ha): 4 (Herbicidal rate of 70% or more and less than 90%)
Cc1nn(C)c(=O)c(-c2c(-c3ccc(OC(F)F)cc3)sc3cc(Cl)c(Cl)cc23)c1O [5-086] | 0 (Herbicidal rate of 5% or less (almost no effect)) | 5 (Herbicidal rate of 90% or more (almost completely withered)) | 3 (Herbicidal rate of 40% or more and less than 70%) | 5 (Herbicidal rate of 90% or more (almost completely withered)) | 0 (Herbicidal rate of 5% or less (almost no effect)) | 0 (Herbicidal rate of 5% or less (almost no effect)) | 0 (Herbicidal rate of 5% or less (almost no effect)) | 0 (Herbicidal rate of 5% or less (almost no effect)) | 3 (Herbicidal rate of 40% or more and less than 70%) | 5 (Herbicidal rate of 90% or more (almost completely withered)) | 5 (Herbicidal rate of 90% or more (almost completely withered)) | 0 (Herbicidal rate of 5% or less (almost no effect)) | 0 (Herbicidal rate of 5% or less (almost no effect)) | 
Cc1cc2sc(-c3ccc(C#N)cc3)c(-c3c(O)c(C)nn(C)c3=O)c2cc1C [5-100] | 0 (Herbicidal rate of 5% or less (almost no effect)) | 0 (Herbicidal rate of 5% or less (almost no effect)) | 0 (Herbicidal rate of 5% or less (almost no effect)) | 0 (Herbicidal rate of 5% or less (almost no effect)) |  | 0 (Herbicidal rate of 5% or less (almost no effect)) |  | 0 (Herbicidal rate of 5% or less (almost no effect)) |  | 0 (Herbicidal rate of 5% or less (almost no effect)) | 2 (Herbicidal rate of 20% or more and less than 40%) | 0 (Herbicidal rate of 5% or less (almost no effect)) | 0 (Herbicidal rate of 5% or less (almost no effect)) | 
COc1ccccc1-c1sc2c(C)cc(C)cc2c1-c1c(O)c(C)nn(C)c1=O [6-002] | 4 (Herbicidal rate of 70% or more and less than 90%) | 4 (Herbicidal rate of 70% or more and less than 90%) | 1 (Herbicidal rate of 5% or more and less than 20%) | 2 (Herbicidal rate of 20% or more and less than 40%) | 3 (Herbicidal rate of 40% or more and less than 70%) | 3 (Herbicidal rate of 40% or more and less than 70%) | 5 (Herbicidal rate of 90% or more (almost completely withered)) | 0 (Herbicidal rate of 5% or less (almost no effect)) | 4 (Herbicidal rate of 70% or more and less than 90%) | 1 (Herbicidal rate of 5% or more and less than 20%) | 4 (Herbicidal rate of 70% or more and less than 90%) | 0 (Herbicidal rate of 5% or less (almost no effect)) | 0 (Herbicidal rate of 5% or less (almost no effect)) | 
